Experimental data as given in US6783949B1, “Processes for determining whether a test substance contains lipases or lipase inhibitors” (Aventis Pharma Deutschland GmbH, priority 1999, dated 2004).

Target: T1, HSL (Rattus norvegicus, UniProt P15304)
T1 construct: The partially purified HSL can be stored at −70° C. for 4 to 6 weeks; from tissue; host or cells: rat epididymal fat cells (male Wistar rats)
T1 sequence (P15304 1-768 isoform P15304-2): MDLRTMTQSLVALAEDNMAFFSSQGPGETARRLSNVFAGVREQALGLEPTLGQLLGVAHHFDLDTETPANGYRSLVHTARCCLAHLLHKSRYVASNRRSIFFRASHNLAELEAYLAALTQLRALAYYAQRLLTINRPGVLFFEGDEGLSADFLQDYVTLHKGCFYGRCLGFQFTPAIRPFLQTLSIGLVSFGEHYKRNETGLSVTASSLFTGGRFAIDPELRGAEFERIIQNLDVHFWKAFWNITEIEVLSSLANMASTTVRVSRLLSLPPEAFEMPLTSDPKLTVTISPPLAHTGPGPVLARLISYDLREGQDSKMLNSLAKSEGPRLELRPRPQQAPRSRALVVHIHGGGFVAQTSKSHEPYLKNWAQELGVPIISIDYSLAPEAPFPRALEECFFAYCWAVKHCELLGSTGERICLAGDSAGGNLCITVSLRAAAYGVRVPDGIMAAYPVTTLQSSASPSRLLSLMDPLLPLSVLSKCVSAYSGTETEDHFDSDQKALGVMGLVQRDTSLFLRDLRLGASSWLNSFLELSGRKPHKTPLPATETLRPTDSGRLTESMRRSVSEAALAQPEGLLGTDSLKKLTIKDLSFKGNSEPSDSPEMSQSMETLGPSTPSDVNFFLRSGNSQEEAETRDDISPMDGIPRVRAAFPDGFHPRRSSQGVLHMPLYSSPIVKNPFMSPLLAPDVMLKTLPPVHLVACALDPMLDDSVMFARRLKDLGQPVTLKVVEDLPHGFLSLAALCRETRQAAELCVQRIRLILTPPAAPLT
Experiment: Direct NAG assay (released NBD-FA, TLC/fluorimetry)
Assay type: biochemical
Details: for Absorption change, Released NBD-FA, 550 nm: 60 min, NAG 0.05 mg/ml
Description: Isolated rat fat cells are obtained from epididymal fatty tissue from untreated male rats (Wistar, 220-250 g) by collagenase treatment according to published processes. The fat cells from 10 rats are washed three times by flotation with 50 ml each of homogenization buffer ([…], pH 7.4, 0.25 M sucrose, 1 mM ethylenediamine-N,N,N′,N′-tetraacetic acid (EDTA), 1 mM dithiothreitol (DTT), 10 μg/ml of leupeptin, 10 μg/ml of antipain, 20 μg/ml of pepstatin) and finally taken up in 10 ml of homogenization buffer. The fat cells are homogenized in a Teflon-in-glass homogenizer (Braun-Melsungen) by 10 strokes at 1500 rpm and 15° C. The homogenizate is centrifuged (Sorvall SM24 tubes, 5000 rpm, 10 min, 4° C.). The […] between the overlying fatty layer and the pellet is removed and the centrifugation is repeated. The […] resulting from this is centrifuged again (Sorvall SM24 tubes, 20,000 rpm, 45 min, 4° C.). […] After incubation for 60 min at 4° C. (shake at intervals of 15 min), the batch is centrifuged (Sorvall SM24 tubes, 3000 rpm, 10 min, 4° C.). The supernatant is brought to pH 5.2 by addition of glacial acetic acid and incubated at 4° C. for 30 min. The precipitates are collected by centrifugation (Sorvall SS34, 12,000 rpm, 10 min, 4° C.) and suspended in 2.5 ml of 20 mM TRIS/HCl, pH 7.0, 1 mM EDTA, 65 mM NaCl, 13% sucrose, 1 mM DTT, 10 μg/ml of leupeptin/pepstatin/antipain. The suspension is dialyzed overnight at 4° C. against 25 mM TRIS/HCl, pH 7.4, 50% glycerol, 1 mM DTT, and 10 μg/ml of leupeptin, pepstatin, and antipain and then applied to a hydroxylapatite column (0.1 g per 1 ml of suspension, equilibrated with 10 mM potassium phosphate, pH 7.0, 30% glycerol, 1 mM DTT). The column is washed with four volumes of equilibration buffer at a flow rate of 20 to 30 ml/h. The HSL is eluted with a volume of equilibration buffer which contains 0.5 M potassium phosphate, then dialyzed (see above) and concentrated 5 to 10 times by ultrafiltration (Amicon Diaflo PM 10 filter) at 4° C. The partially purified HSL can be stored at −70° C. for 4 to 6 weeks.
6 mg of phosphatidylcholine and 6 mg of phosphatidylinositol are dissolved in 1 ml of chloroform each. 10 mg of NAG are dissolved in 1 ml of chloroform. Two parts of phosphatidylinositol solution (e.g., 83.5 μl) and one part of phosphatidylcholine solution (e.g., 41.5 μl) and 100 μl of NAG solution are pipetted together into plastic scintillation containers (final concentration in the test: 0.0375 mg of phospholipid/ml; 0.05 mg/NAG/ml). The chloroform (225 μl total volume) is completely removed by overblowing with a stream of N2. The dried substrate can be stored at 4° C. for up to three days. For the preparation of the phospholipid vesicles/micelles having intercalated NAG (on the test day), the dried substrate is taken up in 20 ml of assay buffer (25 mM TRIS/HCl, pH 7.4; 150 mM NaCl) and two ultrasonic treatments with an ultrasonic probe (Branson Sonifier type 11, standard microtip): 1st treatment setting 2, 2×1 min, in between in each case 1 min on ice; 2nd treatment setting 4, 2×1 min, in between in each case 1 min on ice. During this procedure, the color of the substrate solution changed from yellow (extinction maximum 481 nm) to red (extinction maximum 550 nm) due to intercalation of NAG between the phospholipid molecules of the vesicles/micelles. Before use as a substrate (within the next 2 h), the solution is additionally incubated on ice for 15 min.
Altematively to the measurement of the extinction change of the substrate solution, the products of the HSL reaction are investigated by phase separation/thin-layer chromatography. For this, the incubation batch (200 μl total volume, see indirect NAG assay) is mixed in 2 ml Eppendorf vessels with 1.3 ml of methanol/chloroform/heptane (10:9:7) and then with 0.4 ml of 0.1 M NaOH. After intensive mixing (10 sec), the phase separation is initiated by centrifugation (800×g, 20 min, room temperature). […]

Compound	Absorption change, Released NBD-FA, 550 nm (HSL 1 μg) [arb. units]	Absorption change, Released NBD-FA, 550 nm (HSL 2 μg) [arb. units]	Absorption change, Released NBD-FA, 550 nm (HSL 5 μg) [arb. units]	Absorption change, Released NBD-FA, 550 nm (HSL 7.5 μg) [arb. units]	Absorption change, Released NBD-FA, 550 nm (HSL 10 μg) [arb. units]	Absorption change, Released NBD-FA, 550 nm (HSL 15 μg) [arb. units]	Absorption change, Released NBD-FA, 550 nm (HSL 20 μg) [arb. units]	Absorption change, Released NBD-FA, 550 nm (HSL 25 μg) [arb. units]	Absorption change, Released NBD-FA, 550 nm (HSL 30 μg) [arb. units]	Absorption change, Released NBD-FA, 550 nm (HSL 40 μg) [arb. units]	Absorption change, Released NBD-FA, 550 nm (HSL 60 μg) [arb. units]	Absorption change, Released NBD-FA, 550 nm (HSL 80 μg) [arb. units]	IC50 [µM]
O=C(CCCCCCCCCCCNc1ccc([N+](=O)[O-])c2nonc12)OCC(O)CO (stereo not shown) [Compound (3)]	17 ± 2	44 ± 5	103 ± 11	157 ± 21	215 ± 24	320 ± 29	432 ± 53	544 ± 61	616 ± 56	693 ± 67	733 ± 80	746 ± 98	–
O=C(CCCCCCCCCCCNc1ccc([N+](=O)[O-])c2nonc12)OCC(O)CO (racemic) [Compound 3]	–	–	–	–	–	–	–	–	–	–	–	–	1.02 ± 0.25
